Tests used:
Assay in all cases: relative viability (nuclei count vs DMSO), 5 days (fraction); higher = more cells survive
[1] = compound: C1CC1C(=O)NC2=NNC3=C2C=CC(=C3)C4=CC(=CC=C4)C(=O)NC5CC5 [XMD13-2] + Cc1nc(Nc2ncc(C(=O)Nc3c(C)cccc3Cl)s2)cc(N2CCN(CCO)CC2)n1 [Dasatinib] (partner 0.075 µM)
How it was run: (§1)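 Nuclei were stained with Hoechst during a one-step fixation (final 0.05% Triton X-100, 1% formaldehyde, 1 ug/ml Hoechst) carried out 5 days after dosing, then counted on 4× images. The cells, lung cancer lines in 1536-well plates, had been dosed by pin tool the day after seeding with one drug alone or a fixed anchor-drug dose plus five library-drug doses (not always all listed) in √10 steps. Relative viability is the nuclei count in treated wells divided by that in vehicle wells, and each value is the median of duplicate plates.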

[2] = compound: Cc1ccc(C(=O)Nc2cccc(C(F)(F)F)c2)cc1Nc1cncc(C(N)=O)c1 [ALW-II-49-7] + O=C(CCCCCCC(=O)Nc1ccccc1)NO [Vorinostat] (partner 1 µM)
How it was run: as §1

[3] = compound: Cc1nc(Nc2ncc(C(=O)Nc3c(C)cccc3Cl)s2)cc(N2CCN(CCO)CC2)n1 [Dasatinib] + CC(=O)c1c(C)c2cnc(Nc3ccc(N4CCNCC4)cn3)nc2n(C2CCCC2)c1=O [Palbociclib] (partner 0.5 µM)
How it was run: as §1

[4] = compound: Cc1nc(Nc2ncc(C(=O)Nc3c(C)cccc3Cl)s2)cc(N2CCN(CCO)CC2)n1 [Dasatinib] + Nc1nc2[nH]cc(CCc3ccc(C(=O)N[C@@H](CCC(=O)O)C(=O)O)cc3)c2c(=O)[nH]1 [Pemetrexed] (partner 0.2 µM)
How it was run: as §1

Cell Line	relative viability ([1]; first compound 0.05 µM)	relative viability ([1]; first compound 0.1581 µM)	relative viability ([1]; first compound 0.5 µM)	relative viability ([1]; first compound 1.581 µM)	relative viability ([1]; first compound 5 µM)	relative viability ([2]; first compound 0.08 µM)	relative viability ([2]; first compound 0.253 µM)	relative viability ([2]; first compound 0.8 µM)	relative viability ([2]; first compound 2.53 µM)	relative viability ([2]; first compound 8 µM)	relative viability ([3]; first compound 0.005 µM)	relative viability ([3]; first compound 0.01581 µM)	relative viability ([3]; first compound 0.05 µM)	relative viability ([3]; first compound 0.1581 µM)	relative viability ([3]; first compound 0.5 µM)	relative viability ([4]; first compound 0.005 µM)	relative viability ([4]; first compound 0.01581 µM)	relative viability ([4]; first compound 0.05 µM)	relative viability ([4]; first compound 0.1581 µM)	relative viability ([4]; first compound 0.5 µM)
EPLC-272H	0.39	0.31	0.503	0.317	0.269	0.37	0.436	0.352	0.32	0.301	0.31	0.327	0.314	0.296	0.143	0.385	0.356	0.286	0.154	0.198
H3255	0.425	0.402	0.367	0.294	0.373	0.925	0.804	0.813	0.735	0.686	0.312	0.333	0.329	0.317	0.274	0.578	0.535	0.52	0.49	0.375
HARA	0.353	0.196	0.279	0.295	0.298	0.608	0.597	0.634	0.594	0.58	0.303	0.243	0.155	0.177	0.114	0.241	0.234	0.229	0.202	0.151
HCC-15	0.775	0.66	0.715	0.614	0.423	0.913	0.807	0.916	0.802	0.893	0.714	0.669	0.673	0.578	0.565	0.198	0.207	0.209	0.203	0.205
HCC-78	0.565	0.321	0.36	0.347	0.351	0.428	0.358	0.408	0.342	0.485	0.459	0.429	0.443	0.382	0.239	0.913	0.894	0.936	0.899	0.76
HCC-366	0.775	0.48	0.783	0.585	0.662	0.49	0.363	0.258	0.343	0.21	0.412	0.185	0.173	0.114	0.0885	0.173	0.147	0.166	0.177	0.114
HCC-827	0.321	0.21	0.317	0.253	0.337	0.9	0.803	0.787	0.813	0.883	0.438	0.458	0.419	0.135	0.114	0.253	0.251	0.256	0.239	0.133
HOP-62	0.699	0.689	0.794	0.605	0.6	0.547	0.696	0.588	0.523	0.298	0.391	0.381	0.506	0.431	0.182	0.284	0.279	0.352	0.326	0.274
LC-2-ad	0.899	0.39	0.711	0.535	0.559	0.681	0.763	0.691	0.698	0.528	0.515	0.471	0.477	0.299	0.159	0.262	0.253	0.256	0.237	0.214
LCLC-97TM1	0.829	0.784	0.839	0.728	0.695	0.96	0.683	0.642	0.685	0.49	0.203	0.227	0.246	0.2	0.13	0.195	0.184	0.177	0.182	0.143
LCLC-103H	0.688	0.46	0.445	0.515	0.527	0.79	0.763	0.658	0.71	0.618	0.506	0.47	0.452	0.453	0.404	0.517	0.437	0.481	0.461	0.328
LK-2	0.343	0.276	0.361	0.304	0.234	0.327	0.315	0.225	–	0.247	0.583	–	0.41	0.217	0.223	0.286	–	0.201	0.128	0.202
LOU-NH91	0.591	0.586	0.566	0.479	0.525	0.884	0.888	1	–	0.805	0.569	0.51	0.553	0.498	0.369	0.414	0.389	0.407	0.377	0.319
LU99A	0.572	0.646	0.649	0.503	0.456	–	0.525	0.507	0.5	0.619	0.354	0.379	0.379	0.308	0.2	0.191	0.158	0.192	0.176	0.16
LXF-289	0.301	0.239	0.242	0.141	0.205	0.726	0.877	0.81	0.854	0.762	0.603	0.676	0.672	0.384	0.118	0.918	0.987	1.13	0.687	0.205
NCI-H23	0.907	0.725	0.82	0.748	0.99	0.634	0.692	0.339	0.575	0.46	0.536	0.476	0.38	0.34	0.271	0.549	0.528	0.59	0.402	0.384

Cell Line	relative viability ([1]; first compound 0.05 µM)	relative viability ([1]; first compound 0.1581 µM)	relative viability ([1]; first compound 0.5 µM)	relative viability ([1]; first compound 1.581 µM)	relative viability ([1]; first compound 5 µM)	relative viability ([2]; first compound 0.08 µM)	relative viability ([2]; first compound 0.253 µM)	relative viability ([2]; first compound 0.8 µM)	relative viability ([2]; first compound 2.53 µM)	relative viability ([2]; first compound 8 µM)	relative viability ([3]; first compound 0.005 µM)	relative viability ([3]; first compound 0.01581 µM)	relative viability ([3]; first compound 0.05 µM)	relative viability ([3]; first compound 0.1581 µM)	relative viability ([3]; first compound 0.5 µM)	relative viability ([4]; first compound 0.005 µM)	relative viability ([4]; first compound 0.01581 µM)	relative viability ([4]; first compound 0.05 µM)	relative viability ([4]; first compound 0.1581 µM)	relative viability ([4]; first compound 0.5 µM)
NCI-H322M	0.237	0.239	0.24	0.263	0.283	0.789	0.93	0.861	0.93	0.773	0.435	0.382	0.365	0.326	0.228	0.576	0.495	0.394	0.273	0.231
NCI-H358	0.201	0.162	0.142	0.174	0.171	1	0.694	0.805	0.574	0.447	0.144	0.129	0.101	0.0794	0.0791	0.16	0.176	0.143	0.151	0.129
NCI-H441	0.567	0.668	0.54	0.625	0.516	0.669	0.788	0.901	0.549	0.538	0.265	0.191	0.2	0.14	0.115	0.305	0.259	0.286	0.225	0.27
NCI-H460	0.636	0.466	0.525	0.578	0.626	0.763	0.857	0.69	0.497	0.498	0.14	0.112	0.0827	0.06	0.0635	0.0609	0.062	0.0522	0.0587	0.0433
NCI-H520	0.213	0.261	0.208	0.231	0.182	0.782	0.649	0.681	0.696	0.617	0.172	0.156	0.131	0.1	0.119	0.51	0.358	0.285	0.138	0.138
NCI-H522	0.81	0.891	0.94	0.821	0.792	0.824	1.04	0.824	0.834	0.94	1.1	0.802	0.985	0.773	0.722	1.04	1.03	0.914	0.706	0.681
NCI-H647	0.17	0.172	0.207	0.13	0.115	0.539	0.642	0.599	0.321	0.349	0.314	0.22	0.162	0.0968	0.0812	0.156	0.137	0.117	0.0903	0.0883
NCI-H650	0.463	0.452	0.524	0.39	0.546	0.351	0.461	0.579	0.42	0.374	0.307	0.326	0.343	0.323	0.261	0.989	0.932	0.818	0.66	0.418
NCI-H661	0.973	0.96	0.811	0.737	0.523	0.854	0.859	0.823	0.795	0.79	0.429	0.412	0.386	0.345	0.282	0.913	0.823	0.889	0.763	0.51
NCI-H838	0.276	0.293	0.274	0.241	0.318	0.778	0.748	0.693	0.759	0.769	0.193	0.156	0.182	0.148	0.141	0.26	0.241	0.218	0.176	0.214
NCI-H1355	0.847	0.839	0.79	0.695	0.61	0.63	0.618	0.615	0.591	0.597	0.36	0.282	0.299	0.244	0.224	1.04	0.92	1.1	0.806	0.663
NCI-H1395	0.459	0.428	0.402	0.394	0.441	0.649	0.699	0.733	–	0.569	0.594	0.588	0.535	0.443	0.304	0.987	1.01	0.603	0.369	0.368
NCI-H1437	0.409	0.442	0.397	0.352	0.556	0.831	0.926	0.822	0.756	0.699	0.353	0.331	0.335	0.302	0.277	0.351	0.336	0.287	0.256	0.203
NCI-H1650	0.268	0.367	0.318	0.282	0.296	0.518	0.656	0.563	0.524	0.576	0.282	0.12	0.184	0.138	0.177	0.341	0.38	0.287	0.285	0.268
NCI-H1651	0.508	0.351	0.423	0.374	0.538	0.576	0.665	0.579	0.54	0.555	0.523	0.494	0.514	0.4	0.36	0.58	0.506	0.485	0.545	0.426
NCI-H1666	0.789	0.852	0.861	0.813	0.851	0.903	1.07	1.11	0.971	1	0.661	0.594	0.637	0.656	0.632	0.871	0.848	0.88	0.73	0.633
